Laboratory results as given in PMC9611048, “Rapid Simultaneous Determination of Three Synthetic Cannabinoids in Urine and Plasma of Rats Using Ultra-High Performance Liquid Chromatography Tandem Mass Spectrometry” (Toxics, 2022).

How the values were obtained:
[1] = Determination of synthetic cannabinoids in rat urine by LC-MS/MS after dosing; assay type: in vivo; conditions: for concentration at 2 h / concentration at 4 h / concentration at 8 h / concentration at 24 h / concentration at 48 h / concentration at 72 h: male, Sprague-Dawley, intravenous; for detection window: rat, the dose for the tail vein was 1 mg/kg
Procedure: (§1) The Sprague–Dawley male rats (n = 12, 6 weeks, weighing 190–210 g) were obtained from Zhejiang Academy of Medical Sciences (Hangzhou, Zhejiang, China) and acclimatized for 1 week before exposure in the experimental room (temperature 23 ± 2 ℃, humidity 55 ± 10%, 12 h light–dark cycle). After 1-week adaptation, rats were fasted for 16 h before […]. The rats were randomly allocated to 3 groups, the JWH-122, 5F-AMB, and AMB-PUBINACA group, while the doses were all 1 mg/kg bw/day by tail vein injection. The urine samples were collected at 2 h, 4 h, 8 h, and 24 h during the initial 24 h and every 24 h during the next 48 h. The blood samples were collected from the abdominal aorta. Finally, urine samples and blood samples were obtained from each rat and stored at −80 °C. All the above animal experimental procedures were approved by the Zhejiang Center of Laboratory Animals Welfare and Ethical Review Committee (Approval ID: ZJCLA-IACUC-20100005; Hangzhou, China).
(§2) In this experiment, extraction conditions of three synthetic cannabinoids in rat plasma and urine were optimized, and the detailed parameters are shown in Table 1. Briefly, 100 μL of plasma sample was transferred into a centrifuge tube with 100 μL of acetonitrile and 500 μL of methanol and then vortexed for 6 min. Finally, the supernatant was centrifuged at 12,000 rpm for 10 min then filtered through a 0.22 μm cellulose filter. Solid phase extraction (SPE) is a common pretreatment method for the synthesis of cannabinoids in urine. The urine sample was extracted by SPE. The SPE cartridges were conditioned with 3 mL of methanol followed by 6 mL of water. Amounts of 1.6 mL of acetonitrile and water were added to 400 µL of urine, mixed uniform. After sample loading, the cartridges were respectively washed with 3 mL of 5% methanol, discard wash. The extract was eluted via 4 mL of methanol and evaporated to dryness under a stream of nitrogen at 40 ℃.
The AB SCIEX ExionLCTM0AD XR high-performance liquid chromatograph system coupled with the SCIEX QTRAP 6500^+ triple quadrupole/linear ion trap mass spectrometer system (AB SCIEX, Milford, MA, USA) was used for analysis. Chromatographic separation was carried out using a Waters UPLC HSS T3 (150 × 2.1 mm, 1.8 μm) column at 40 °C;. Injection volume was 1 μL. The mobile phase comprised 0.1% formic acid in water (A) and acetonitrile (B) at a flow rate of 0.3 mL/min. Gradient conditions were set as follows: 10% B (1 min), to 100% B (in 6 min), hold 100% B (4 min), to 10% B (in 0.1 min), and hold (1.9 min).
The separated analytes were quantified using an AB SCIEX 6500^+ quadrupole ion trap mass spectrometer (QTRAP MS) under the multiple reaction monitoring (MRM) mode with […] ion channels (Table 2). The mass spectrometry parameters were set as follows: curtain gas, 35 psi; collision gas, medium; ion spray voltage, 5500 V; source temperature, 550 ℃; nebulizing gas, 50 psi; heater gas, 50 psi. The HPLC-QTRAP-MS data were converted to SCIEX OS 1.4.0.18067 (SCIEX, Toronto, QUE, CA) for qualitative and quantitative analysis.

[2] = Determination of synthetic cannabinoids in rat plasma by LC-MS/MS after dosing; assay type: in vivo; conditions: 1 mg/kg tail vein injection; for concentration at 72 h: male, Sprague-Dawley, intravenous
Procedure: as §1
as §2, with “After sample loading, the cartridges were respectively washed with 3 mL of 5% methanol, discard wash. The extract was eluted via 4 mL of methanol and evaporated to dryness under a stream of nitrogen at 40 ℃.” left out
The separated analytes were quantified using an AB SCIEX 6500^+ quadrupole ion trap mass spectrometer (QTRAP MS) under the multiple reaction monitoring (MRM) mode with negative ion channels (Table 2). […] The HPLC-QTRAP-MS data were converted to SCIEX OS 1.4.0.18067 (SCIEX, Toronto, QUE, CA) for qualitative and quantitative analysis.

[3] = rat urine, 1 mg/kg tail vein injection
[4] = rat urine, 72 h, 1 mg/kg tail vein injection

| SMILES | concentration at 2 h [1, 3] | concentration at 4 h [1, 3] | concentration at 8 h [1, 3] | concentration at 24 h [1, 3] | concentration at 48 h [1, 3] | concentration at 72 h [1, 4] | detection window [1] | concentration at 72 h [2] | Urine Concentration 72 h [1, 4] | Plasma Concentration 72 h [2] |
| --- | --- | --- | --- | --- | --- | --- | --- | --- | --- | --- |
| CCCCCn1cc(C(=O)c2ccc(C)c3ccccc23)c2ccccc21 [JWH-122, 4-methylnaphthalen-1-yl-(1-pentylindol-3-yl) methanone] | 0.2 ng/mL | 0.12 ng/mL | 0.09 ng/mL | 0.06 ng/mL | 0.02 ng/mL | 0.01 ng/mL | 2 to 3 days | 0.08 ng/mL | – | – |
| COC(=O)C(NC(=O)c1nn(Cc2ccc(F)cc2)c2ccccc12)C(C)C (stereo not drawn) [AMB-FUBINACA, methyl 2-(1-(4-fluorobenzyl)-1Hindazole-3-carboxamido)-3-methylbutanoate] | 3.38 ng/mL | 0.41 ng/mL | 0.19 ng/mL | 0.1 ng/mL | 0.03 ng/mL | – | 2 to 3 days | 0.05 ng/mL | not detected | – |
| COC(=O)[C@@H](NC(=O)c1nn(CCCCCF)c2ccccc12)C(C)C [5F-AMB, methyl (1-(5-fluoropentyl)-1H-indazole-3-carbonyl)-L-valinate] | 8.68 ng/mL | 1.11 ng/mL | 0.72 ng/mL | 0.14 ng/mL | 0.03 ng/mL | 0.01 ng/mL | 2 to 3 days | – | – | not detected |
